In article PMC9562371 (RSC Advances, 2022):

Biological target: T1, m-OLF (myocilin OLF domain) (Homo sapiens, UniProt Q99972)
T1 sequence (Q99972 244-504): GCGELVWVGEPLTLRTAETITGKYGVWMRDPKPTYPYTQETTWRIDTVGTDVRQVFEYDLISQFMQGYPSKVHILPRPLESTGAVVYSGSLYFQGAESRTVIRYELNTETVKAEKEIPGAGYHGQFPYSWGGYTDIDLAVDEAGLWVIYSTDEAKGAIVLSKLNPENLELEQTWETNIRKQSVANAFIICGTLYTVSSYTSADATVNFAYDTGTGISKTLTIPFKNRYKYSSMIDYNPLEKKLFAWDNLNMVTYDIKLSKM
Experiment: surface plasmon resonance
Assay type: binding

- Kd: 19.8 µM
Compound: O=C(O[C@@H]1Cc2c(O)cc(O)cc2O[C@@H]1c1ccc(O)c(O)c1)c1cc(O)c(O)c(O)c1 [ECG]
